From patent US7109193B2, “Tricyclic diazepines tocolytic oxytocin receptor antagonists” (Wyeth, priority 2001, dated 2006) come the findings set out here.

The IC50 is the midpoint of a concentration-inhibition curve. As usually defined, the melting point is the temperature, or range, at which the solid turns liquid.

The structures appear in SMILES notation.

Series [1] concerns the target T1, human vasopressin V1a receptor subtype (Homo sapiens, UniProt P37288).
T1 construct: host or cells: CHO cells (pZeoSV vector for the Thibonnier line)
Nature of the series: Vasopressin binding in Chinese Hamster Ovary cell membranes expressing human vasopressin V1a subtype receptors. The settings on record: CHO cell membranes, [3H]Manning ligand, values in parentheses. In a few lines: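 Displacement of [3H]Manning ligand (8 nM working solution) from human V1a receptors in CHO cell membranes, 25–50 μg protein per well. Incubation ran 60 min at room temperature in 50 mM Tris-HCl pH 7.4 with protease inhibitors, followed by filtration and scintillation counting. Results are given as IC50 or percent inhibition.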

T1 sequence (P37288 whole entry): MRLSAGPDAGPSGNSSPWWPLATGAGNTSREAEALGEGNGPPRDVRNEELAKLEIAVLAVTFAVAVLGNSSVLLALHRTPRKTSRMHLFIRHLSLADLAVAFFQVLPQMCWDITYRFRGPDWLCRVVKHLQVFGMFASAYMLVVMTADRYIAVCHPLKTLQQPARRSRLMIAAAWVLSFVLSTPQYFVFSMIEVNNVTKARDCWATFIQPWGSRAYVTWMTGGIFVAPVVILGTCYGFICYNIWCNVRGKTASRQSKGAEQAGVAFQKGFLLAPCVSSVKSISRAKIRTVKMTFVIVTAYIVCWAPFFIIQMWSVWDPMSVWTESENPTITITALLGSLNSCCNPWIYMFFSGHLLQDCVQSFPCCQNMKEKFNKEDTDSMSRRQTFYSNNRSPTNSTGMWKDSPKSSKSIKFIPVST

For `O=C(c1ccc(-c2cccc3ccccc23)nc1)N1Cc2cccn2Cc2ccccc21` [Example 28, [6-(Naphthalen-1-yl)-pyridin-3-yl]-[10,11-dihydro-5H-pyrrolo[2,1-c][1,4]benzodiazepin-10-yl]methanone], the melting point lay in the range of 155 to 158 °C. The IC50 in series [1] came out at 66.6 nM.
In the same order, the values of `COc1cc(C(=O)N2Cc3ccc(C(=O)N4CCC[C@H]4CN4CCCC4)n3Cc3ccccc32)ccc1-c1ccccc1C(F)(F)F` [Example 20, {[10-(2-Methoxy)-2′-trifluoromethyl-[1,1′-biphenyl]-4-yl]carbonyl}-[(2S)-[(2-pyrrolidin-1-yl)methyl]pyrrolidin-1-yl]-10,11-dihydro-5H-pyrrolo[2,1-c][1,4]benzodiazepin-3-yl-methanone] are 125 to 128 °C and 717 nM.
On the same counts, the results for `Cc1ccc(-c2ccc(C(=O)N3Cc4cccn4Cc4ccccc43)cc2)c2ccccc12` [Example 25, [4-(4-Methyl-naphthalen-1-yl)phenyl][10,11-dihydro-5H-pyrrolo[2,1-c][1,4]benzodiazepin-10-yl]methanone] are 160 to 162 °C and 131 nM.
As to `COc1cc(C(=O)N2Cc3ccc(C(=O)N(C)CCN(C)C)n3Cc3ccccc32)ccc1-c1ccccc1C(F)(F)F` [Example 22, N-Methyl-[N-(2-dimethylamino)ethyl]-10-{[2-methoxy-2′-trifluoromethyl-[1,1′-biphenyl]-4-yl]carbonyl}-10,11-dihydro-5H-pyrrolo[2,1-c][1,4]benzodiazepine-3-carboxamide], the melting point was 187 to 190 °C. Moreover, the IC50 in series [1] was 225 nM.
In the same order, the values of `O=C(c1ccc(-c2cccc3ccccc23)cc1Cl)N1Cc2cccn2Cc2ccccc21` [Example 24, [2-Chloro-4-(naphthalen-1-yl)phenyl][10,11-dihydro-5H-pyrrolo[2,1-c][1,4]benzodiazepin-10-yl]methanone] are 115 to 117.5 °C and 22.5 nM.
`COc1cc(C(=O)N2Cc3ccc(C(=O)N(C)CCCN(C)C)n3Cc3ccccc32)ccc1-c1ccccc1C(F)(F)F` [Example 21, N-Methyl-[N-(3-dimethylamino)propyl]-10-{[2-methoxy-2′-trifluoromethyl-[1,1′-biphenyl]-4-yl]carbonyl}-10,11-dihydro-5H-pyrrolo[2,1-c][1,4]benzodiazepin-3-carboxamide] displayed a melting point of 140 to 142 °C. Further, in series [1], the half-inhibitory concentration (IC50) was found to be 378 nM.
The molecule `COc1cc(C(=O)N2Cc3cccn3Cc3ccccc32)ccc1-n1c(C)ccc1C` [Example 27, [4-(2,5-Dimethyl-1-H-pyrrol-1-yl)-3-methoxy-phenyl][10,11-dihydro-5H-pyrrolo[2,1-c][1,4]benzodiazepin-10-yl]methanone] displayed a melting point of 141 to 144 °C. Moreover, the IC50 in series [1] was 45.6 nM.
